What was measured:
Type in all cases: in vivo
harmful plants [1] = test: Method B: pre-emergence herbicidal action, summary in text; details: applied pre-emergence, table B (320 g/ha)
Text: (§1) Method B: Pre-Emergence Herbicidal Action and Crop Plant Compatibility
(§2) Seeds of monocotyledonous and dicotyledonous weed plants and crop plants are placed in plastic or organic planting pots and covered with soil. The compounds of the invention, formulated in the form of wettable powders (WP) or as emulsion concentrates (EC), are then applied onto the surface of the covering soil as aqueous suspension or emulsion with addition of 0.5% additive at a water application rate of 6001/ha (converted). After the treatment, the pots are placed in a greenhouse and kept under good growth conditions for the trial plants. After about 3 weeks, the effect of the preparations is scored visually in comparison with untreated controls as percentages. For example, 100% activity=the plants have died, 0% activity=like control plants.

Hordeum murinum [2] = test: Method B: pre-emergence herbicidal action; details: scored visually after about 3 weeks
Text: as §1, §2

Abufilon theophrast [3] = test: Method B: pre-emergence herbicidal action; details: scored visually after about 3 weeks
Text: as §1, §2

Avena fatua [4] = test: Method B: pre-emergence herbicidal action; details: scored visually after about 3 weeks
Text: as §1, §2

Lolium rigidum [5] = test: Method B: pre-emergence herbicidal action; details: scored visually after about 3 weeks
Text: as §1, §2

Polygonum convolvulus [6] = test: Method B: pre-emergence herbicidal action; details: scored visually after about 3 weeks
Text: as §1, §2

Echinochloa crus-galli [7] = test: Method B: pre-emergence herbicidal action; details: scored visually after about 3 weeks
Text: as §1, §2

Alopecurus myosuroides [8] = test: Method B: pre-emergence herbicidal action; details: scored visually after about 3 weeks
Text: as §1, §2

Digitaria sanguinalis = test: Method B: pre-emergence herbicidal action; details: scored visually after about 3 weeks
Text: as §1, §2

Stellaria media [9] = test: Method B: pre-emergence herbicidal action; details: scored visually after about 3 weeks
Text: as §1, §2

Matricaria chamonilla = test: Method E: herbicidal early post-emergence action; details: cotyledon stage, 96-well microtiter plates, scored visually after 9 to 12 days
Protocol: (§3) Method E: Herbicidal Early Post-Emergence Action Seeds of monocotyledonous or dicotyledonous weed plants are placed in 96-well microtiter plates in quartz sand and grown in a climatized chamber under controlled growth conditions. 5 to 7 days after sowing, the test plants are treated at the cotyledon stage. The compounds of the invention, formulated in the form of emulsion concentrates (EC), are applied with a water application rate of the equivalent of 2200 liters per hectare. After the test plants had been left to stand in the climatized chamber for 9 to 12 days under optimum growth conditions, the effect of the preparations is scored visually in comparison to untreated controls. For example, 100% activity=the plants have died, 0% activity=like control plants.

Poa annua [10] = test: Method E: herbicidal early post-emergence action; details: cotyledon stage, 96-well microtiter plates, scored visually after 9 to 12 days
Protocol: as §3

Lolium perenne = test: Method E: herbicidal early post-emergence action; details: cotyledon stage, 96-well microtiter plates, scored visually after 9 to 12 days
Protocol: as §3

Agrostis tenuis = test: Method E: herbicidal early post-emergence action; details: cotyledon stage, 96-well microtiter plates, scored visually after 9 to 12 days
Protocol: as §3

Stellaria media [11] = test: Method E: herbicidal early post-emergence action; details: cotyledon stage, 96-well microtiter plates, scored visually after 9 to 12 days
Protocol: as §3

harmful plants [12] = test: Method A: post-emergence herbicidal action, summary in text; details: applied post-emergence, table A (320 g/ha)
Protocol: (§4) Method A: Post-Emergence Herbicidal Action and Crop Plant Compatibility
(§5) Seeds of monocotyledonous and dicotyledonous weeds and crop plants are placed in sandy loam in plastic or organic planting pots, covered with soil and cultivated in a greenhouse under controlled growth conditions. 2 to 3 weeks after sowing, the test plants are treated at the one-leaf stage. The compounds of the invention, formulated in the form of wettable powders (WP) or as emulsion concentrates (EC), are then sprayed onto the green parts of the plants as aqueous suspension or emulsion with addition of 0.5% additive at a water application rate of […] (converted). After the test plants have been kept in the greenhouse under optimum growth conditions for about 3 weeks, the activity of the preparations is rated visually in comparison to untreated controls. For example, 100% activity=the plants have died, 0% activity=like control plants.

Hordeum murinum [13] = test: Method A: post-emergence herbicidal action; details: rated visually after about 3 weeks
Protocol: as §4, §5

Avena fatua [14] = test: Method A: post-emergence herbicidal action; details: rated visually after about 3 weeks
Protocol: as §4, §5

Lolium rigidum [15] = test: Method A: post-emergence herbicidal action; details: rated visually after about 3 weeks
Protocol: as §4, §5

Polygonum convolvulus [16] = test: Method A: post-emergence herbicidal action; details: rated visually after about 3 weeks
Protocol: as §4, §5

Echinochloa crus-galli [17] = test: Method A: post-emergence herbicidal action; details: rated visually after about 3 weeks
Protocol: as §4, §5

Alopecurus myosuroides [18] = test: Method A: post-emergence herbicidal action; details: rated visually after about 3 weeks
Protocol: as §4, §5

Stellaria media [19] = test: Method A: post-emergence herbicidal action; details: rated visually after about 3 weeks
Protocol: as §4, §5

harmful plants [20] = test: Method E: herbicidal early post-emergence action, summary in text; details: applied in early post-emergence, table E (1900 g/ha)
Protocol: as §3

Abufilon theophrast [21] = test: Method D: herbicidal pre-emergence action; details: scored visually after about 3 weeks
Text: as §2, with “Method D: Herbicidal Pre-Emergence Action Seeds” for “Seeds”, “mono-” for “monocotyledonous”, “weed” for “weed plants and crop”, “plastic pots in sandy loam soil (doubly sown with one species each of mono-” for “plastic”, “dicotyledonous weed plants per pot)” for “organic planting pots”, “600 liters per hectare” for “6001/ha”

Poa annua [22] = test: Method D: herbicidal pre-emergence action; details: scored visually after about 3 weeks
Text: as §2, with “Method D: Herbicidal Pre-Emergence Action Seeds” for “Seeds”, “mono-” for “monocotyledonous”, “weed” for “weed plants and crop”, “plastic pots in sandy loam soil (doubly sown with one species each of mono-” for “plastic”, “dicotyledonous weed plants per pot)” for “organic planting pots”, “600 liters per hectare” for “6001/ha”

Matricaria inodora = test: Method D: herbicidal pre-emergence action; details: scored visually after about 3 weeks
Text: as §2, with “Method D: Herbicidal Pre-Emergence Action Seeds” for “Seeds”, “mono-” for “monocotyledonous”, “weed” for “weed plants and crop”, “plastic pots in sandy loam soil (doubly sown with one species each of mono-” for “plastic”, “dicotyledonous weed plants per pot)” for “organic planting pots”, “600 liters per hectare” for “6001/ha”

Lolium rigidum [23] = test: Method D: herbicidal pre-emergence action; details: scored visually after about 3 weeks
Text: as §2, with “Method D: Herbicidal Pre-Emergence Action Seeds” for “Seeds”, “mono-” for “monocotyledonous”, “weed” for “weed plants and crop”, “plastic pots in sandy loam soil (doubly sown with one species each of mono-” for “plastic”, “dicotyledonous weed plants per pot)” for “organic planting pots”, “600 liters per hectare” for “6001/ha”

Setaria viridis = test: Method D: herbicidal pre-emergence action; details: scored visually after about 3 weeks
Text: as §2, with “Method D: Herbicidal Pre-Emergence Action Seeds” for “Seeds”, “mono-” for “monocotyledonous”, “weed” for “weed plants and crop”, “plastic pots in sandy loam soil (doubly sown with one species each of mono-” for “plastic”, “dicotyledonous weed plants per pot)” for “organic planting pots”, “600 liters per hectare” for “6001/ha”

Echinochloa crus-galli [24] = test: Method D: herbicidal pre-emergence action; details: scored visually after about 3 weeks
Text: as §2, with “Method D: Herbicidal Pre-Emergence Action Seeds” for “Seeds”, “mono-” for “monocotyledonous”, “weed” for “weed plants and crop”, “plastic pots in sandy loam soil (doubly sown with one species each of mono-” for “plastic”, “dicotyledonous weed plants per pot)” for “organic planting pots”, “600 liters per hectare” for “6001/ha”

Stellaria media [25] = test: Method D: herbicidal pre-emergence action; details: scored visually after about 3 weeks
Text: as §2, with “Method D: Herbicidal Pre-Emergence Action Seeds” for “Seeds”, “mono-” for “monocotyledonous”, “weed” for “weed plants and crop”, “plastic pots in sandy loam soil (doubly sown with one species each of mono-” for “plastic”, “dicotyledonous weed plants per pot)” for “organic planting pots”, “600 liters per hectare” for “6001/ha”

harmful plants [26] = test: Method D: herbicidal pre-emergence action, summary in text; details: applied pre-emergence, table D (1280 g/ha)
Text: as §2, with “Method D: Herbicidal Pre-Emergence Action Seeds” for “Seeds”, “mono-” for “monocotyledonous”, “weed” for “weed plants and crop”, “plastic pots in sandy loam soil (doubly sown with one species each of mono-” for “plastic”, “dicotyledonous weed plants per pot)” for “organic planting pots”, “600 liters per hectare” for “6001/ha”

harmful plants [27] = test: Method C: herbicidal post-emergence action, summary in text; details: applied post-emergence, table C (1280 g/ha)
Protocol: (§6) Method C: Herbicidal Post-Emergence Action Seeds of mono- and dicotyledonous weed plants are placed in plastic pots in sandy loam soil (doubly sown with one species each of mono- or dicotyledonous weed plants per pot), covered with soil and cultivated in a greenhouse under controlled growth conditions. 2 to 3 weeks after sowing, the test plants are treated at the one-leaf stage. The compounds of the invention, formulated in the form of wettable powders (WP) or as emulsion concentrates (EC), are applied to the green parts of the plants as aqueous suspension or emulsion with addition of 0.5% additive at a water application rate equivalent to 600 liters per hectare. After the test plants have been kept in the greenhouse under optimum growth conditions for about 3 weeks, the activity of the preparations is rated visually in comparison to untreated controls. For example, 100% activity=the plants have died, 0% activity=like control plants.

Poa annua [28] = test: Method C: herbicidal post-emergence action; details: rated visually after about 3 weeks
Protocol: as §6

Lolium rigidum [29] = test: Method C: herbicidal post-emergence action; details: rated visually after about 3 weeks
Protocol: as §6

Echinochloa crus-galli [30] = test: Method C: herbicidal post-emergence action; details: rated visually after about 3 weeks
Protocol: as §6

Stellaria media [31] = test: Method C: herbicidal post-emergence action; details: rated visually after about 3 weeks
Protocol: as §6

Row | Structure (SMILES) | herbicidal efficacy against harmful plants (harmful plants [1]) | Pre-emergence action at 320 g/ha HORMU (Hordeum murinum [2]) [%] | Pre-emergence action at 320 g/ha ABUTH (Abufilon theophrast [3]) [%] | Pre-emergence action at 320 g/ha AVEFA (Avena fatua [4]) [%] | Pre-emergence action at 320 g/ha LOLRI (Lolium rigidum [5]) [%] | Pre-emergence action at 320 g/ha POLCO (Polygonum convolvulus [6]) [%] | Pre-emergence action at 320 g/ha ECHCG (Echinochloa crus-galli [7]) [%] | Pre-emergence action at 320 g/ha ALOMY (Alopecurus myosuroides [8]) [%] | Pre-emergence action at 320 g/ha DIGSA (Digitaria sanguinalis) [%] | Pre-emergence action at 320 g/ha STEME (Stellaria media [9]) [%] | Early post-emergence action at 1900 g/ha MATCH (Matricaria chamonilla) [%] | Early post-emergence action at 1900 g/ha POAAN (Poa annua [10]) [%] | Early post-emergence action at 1900 g/ha LOLPE (Lolium perenne) [%] | Early post-emergence action at 1900 g/ha AGSTE (Agrostis tenuis) [%] | Early post-emergence action at 1900 g/ha STEME (Stellaria media [11]) [%] | herbicidal efficacy against harmful plants (harmful plants [12]) | Post-emergence action at 320 g/ha HORMU (Hordeum murinum [13]) [%] | Post-emergence action at 320 g/ha AVEFA (Avena fatua [14]) [%] | Post-emergence action at 320 g/ha LOLRI (Lolium rigidum [15]) [%] | Post-emergence action at 320 g/ha POLCO (Polygonum convolvulus [16]) [%] | also measured
1 | CN(C)C(=O)C(=O)Cc1nc(C2CC2)ncc1-c1ccccc1Cl [Example I-139, 3-[5-(2-chlorophenyl)-2-cyclopropylpyrimidin-4-yl]-N,N-dimethyl-2-oxopropanamide] | very good herbicidal efficacy | 90 | 80 | 80 | 100 | 90 | 100 | 100 | 100 | 100 | 100 | 100 | 80 | 100 | 100 | very good herbicidal efficacy | 90 | 90 | 100 | 90 | Post-emergence action at 320 g/ha ECHCG (Echinochloa crus-galli [17]): 90%; Post-emergence action at 320 g/ha ALOMY (Alopecurus myosuroides [18]): 100%; Post-emergence action at 320 g/ha STEME (Stellaria media [19]): 80%
2 | O=C(Cc1nc(C2CC2)ncc1-c1c(F)cccc1Cl)C(=O)N1CCCCC1 [Example I-146, 3-[5-(2-chloro-6-fluorophenyl)-2-cyclopropylpyrimidin-4-yl]-1-(piperidin-1-yl)propane-1,2-dione] |  |  |  |  |  |  |  |  |  |  | 80 | 80 | 80 | 80 | 80 |  |  |  |  |  | 
3 | CCOC(=O)C(=O)Cc1nc(C2CC2)ncc1-c1ccccc1Cl [II-099, ethyl 3-[5-(2-chlorophenyl)-2-cyclopropylpyrimidin-4-yl]-2-oxopropanoate] | very good herbicidal efficacy | 90 | 80 | 90 | 100 | 90 | 100 | 100 | 90 | 100 | 100 | 100 |  | 100 |  | very good herbicidal efficacy | 80 | 90 | 100 | 90 | herbicidal efficacy against harmful plants (harmful plants [20]): very good herbicidal efficacy; Post-emergence action at 320 g/ha ECHCG (Echinochloa crus-galli [17]): 90%; Post-emergence action at 320 g/ha ALOMY (Alopecurus myosuroides [18]): 90%; Post-emergence action at 320 g/ha STEME (Stellaria media [19]): 100%
4 | CN(NC(=O)C(=O)Cc1nc(C2CC2)ncc1-c1ccccc1Cl)C(=O)OC(C)(C)C [IV-137, tert-butyl 2-{3-[5-(2-chlorophenyl)-2-cyclopropylpyrimidin-4-yl]-2-oxopropanoyl}-1-methylhydrazinecarboxylate] |  |  |  |  |  |  |  |  |  |  | 80 | 80 | 80 | 100 | 100 |  |  |  |  |  | Pre-emergence action at 1280 g/ha ABUTH (Abufilon theophrast [21]): 90%; Pre-emergence action at 1280 g/ha POAAN (Poa annua [22]): 100%; Pre-emergence action at 1280 g/ha MATIN (Matricaria inodora): 90%; Pre-emergence action at 1280 g/ha LOLRI (Lolium rigidum [23]): 90%; Pre-emergence action at 1280 g/ha SETVI (Setaria viridis): 90%; Pre-emergence action at 1280 g/ha ECHCG (Echinochloa crus-galli [24]): 90%; Pre-emergence action at 1280 g/ha STEME (Stellaria media [25]): 100%; herbicidal efficacy against harmful plants (harmful plants [26]): very good herbicidal efficacy; herbicidal efficacy against harmful plants (harmful plants [27]): very good herbicidal efficacy; herbicidal efficacy against harmful plants (harmful plants [20]): very good herbicidal efficacy; Post-emergence action at 1280 g/ha POAAN (Poa annua [28]): 100%; Post-emergence action at 1280 g/ha LOLRI (Lolium rigidum [29]): 100%; Post-emergence action at 1280 g/ha ECHCG (Echinochloa crus-galli [30]): 100%; Post-emergence action at 1280 g/ha STEME (Stellaria media [31]): 100%

— patent publication US11390589B2, “Herbicidally active substituted phenylpyrimidines” (Bayer Aktiengesellschaft, priority 2018, dated 2022)
